The values that follow are results of earlier work, collected in US6872734B2, “Use of tiagabine for treatment of diabetic neuropathy and migraine” (Abbott Laboratories, priority 2000, dated 2005).

The test system of this series is GABA uptake. Conditions: for inhibition of GABA uptake: according to J. Pharm. Exp. Therap., 228 (1984), 109.

`Cc1ccsc1C(=CCCN1CCC[C@@H](C(=O)O)C1)c1sccc1C` [(R)-N-[4,4-Bis(3-methyl-2-thienyl)-3-butenyl]nipecotic acid]: the “GABA uptake inhibitory properties” value (acid and salts thereof, cf. U.S. Pat. No. 5,010,090) is listed as “effective GABA uptake inhibitory compounds”.

For the molecule `O=C(O)C1CCCN(CCC=C(c2ccccc2)c2ccccc2)C1` (stereo not shown) [SK&F 89976A, N-(4,4-diphenyl-3 butenyl)nipecotic acid], the “inhibition of GABA uptake” value was “active inhibitors of GABA uptake”. For the molecule `O=C(O)C1=CCCN(CCC=C(c2ccccc2)c2ccccc2)C1` [SK&F 100330A, N-(4,4-diphenyl-3-butenyl)guvacine], the “inhibition of GABA uptake” value is “active inhibitors of GABA uptake”. With `O=C(O)C1CCCN(CCC=C(c2ccccc2)c2cccs2)C1` (stereo not shown) [SK&F 100604J, N-(4-phenyl-4-(2-thienyl)-3-butenyl)nipecotic acid], the “inhibition of GABA uptake” value is “active inhibitors of GABA uptake”.
